Measured values reported in US4163801A, “Treatment of animals with 2,6-bis(2-hydroxybenzyl)phenols to eradicate trematodes” (ICI Australia Limited, priority 1976, dated 1979).

Tests used:
[1] = test system: sheep liver fluke (Fasciola hepatica); assay: Flukicidal activity in sheep infected with sheep liver fluke: faecal egg count and post mortem adult fluke count after single dose (Table II); assay type: in vivo; settings: for Post Mortem Results: No of adult fluke: sheep liver, killed day 14; for Faecal Egg Count: sheep
Procedure: Compositions suitable for use as experimental aqueous oral drenches were prepared in the following general manner. A mixture of the required amount of active ingredient was mixed with 40 ml of an aqueous 0.25% w/w solution of "Lubrol E" ("Lubrol E" is a Registered Trade Mark for an octylphenol ethoxylate). The mixture was ball-milled for 30 minutes and the resultant suspension was used as an aqueous drench.
Compositions suitable for use as experimental injectable solutions were prepared by dissolving the chemical in propylene glycol and adjusting the concentration to 10% w/v active ingredient.
Compositions prepared by the methods of Examples 21 and 22 were used as a single dose to test sheep infected with sheep liver fluke (Fasciola hepatica). The number of liver fluke eggs in the faeces was measured at the time of treatment and at selected intervals up to 14 days after treatment. The sheep were killed on day 14 and the number of adult fluke in the liver counted. The amount and structure of active ingredient in each composition and the results of treatment of a sheep with that composition are given in the Table II below. The compositions were administered either by oral drench (oral) or by sub-cutaneous injection (s/c).

immature fluke = assay: Effectiveness against immature fluke (Table II footnotes); assay type: in vivo, Fasciola hepatica; settings: 10 mg/kg; oral route

Row | Structure (SMILES) | Post Mortem Results: No of adult fluke ([1]; 12.5 mg/kg oral) | Faecal Egg Count ([1]; 12.5 mg/kg oral, day 7) | Faecal Egg Count ([1]; 12.5 mg/kg oral, day 14) | other results
1 | Oc1c(I)cc(F)cc1Cc1cc(Cl)cc(Cc2cc(F)cc(I)c2O)c1O [Compound 24] | 0 | 20 Eggs per g faeces | 0 Eggs per g faeces | –
2 | Oc1c(Br)cc(F)cc1Cc1cc(Br)cc(Cc2cc(F)cc(Br)c2O)c1O [Compound 25] | 0 | 0 Eggs per g faeces | 0 Eggs per g faeces | –
3 | Oc1c(I)cc(Cl)cc1Cc1cc(F)cc(Cc2cc(Cl)cc(I)c2O)c1O [Compound 29] | 0 | 10 Eggs per g faeces | 0 Eggs per g faeces | effective against immature fluke (immature fluke): 81%; Post Mortem Results: No of adult fluke ([1]; 6.3 mg/kg oral): 0; Faecal Egg Count ([1]; 6.3 mg/kg oral, day 7): 0 Eggs per g faeces; Faecal Egg Count ([1]; 6.3 mg/kg oral, day 14): 0 Eggs per g faeces
4 | CC(c1cc(Cl)cc(Cl)c1O)c1cc(F)cc(Cc2cc(Cl)cc(Br)c2O)c1O (stereo not drawn) [Compound 30, 2-(3-Bromo-5chloro-2-hydroxybenzyl)-6-[1-(3,5-dichloro-2-hydroxyphenyl)ethyl]-4-fluorophenol] | 0 | 0 Eggs per g faeces | 0 Eggs per g faeces | –
5 | CC(=O)Oc1c(Cc2cc(Cl)cc(Br)c2O)cc(F)cc1Cc1cc(Cl)cc(Br)c1O [Compound 31] | 0 | 220 Eggs per g faeces | 10 Eggs per g faeces | –
6 | Oc1c(I)cc(F)cc1Cc1cc(F)cc(Cc2cc(F)cc(I)c2O)c1O [Compound 38] | – | – | – | Post Mortem Results: No of adult fluke ([1]; 6.3 mg/kg oral): 0; Faecal Egg Count ([1]; 4.0 mg/kg oral, day 7): 50 Eggs per g faeces; Faecal Egg Count ([1]; 4.0 mg/kg oral, day 14): 80 Eggs per g faeces; Faecal Egg Count ([1]; 6.3 mg/kg oral, day 7): 190 Eggs per g faeces; Faecal Egg Count ([1]; 6.3 mg/kg oral, day 14): 0 Eggs per g faeces
7 | CC(c1cc(F)cc(Br)c1O)c1cc(Cl)cc(Cc2cc(F)cc(Br)c2O)c1O (stereo not drawn) [Compound 39] | – | – | – | Post Mortem Results: No of adult fluke ([1]; 3.0 mg/kg oral): 0; Post Mortem Results: No of adult fluke ([1]; 6.0 mg/kg oral): 0; Faecal Egg Count ([1]; 3.0 mg/kg oral, day 7): 210 Eggs per g faeces; Faecal Egg Count ([1]; 3.0 mg/kg oral, day 14): 0 Eggs per g faeces; Faecal Egg Count ([1]; 6.0 mg/kg oral, day 7): 60 Eggs per g faeces; Faecal Egg Count ([1]; 6.0 mg/kg oral, day 14): 0 Eggs per g faeces
8 | CC(c1cc(F)cc(Br)c1O)c1cc(Cl)cc(C(C)c2cc(F)cc(Br)c2O)c1O (stereo not drawn) [Compound 40, 2,6-Bis[1-(3-bromo-5-fluoro-2-hydroxyphenyl)ethyl]-4-chlorophenol] | 11 | 0 Eggs per g faeces | 0 Eggs per g faeces | –
9 | CC(c1cc(Cl)cc(Cl)c1O)c1cc(F)cc(Cc2cc(F)cc(Br)c2O)c1O (stereo not drawn) [Compound 46] | 0 | 0 Eggs per g faeces | 0 Eggs per g faeces | –
